We go through nine compounds from patent US5225559A, “Diarylmethoxypiperidine derivatives” (Ube Industries, Ltd., priority 1990, dated 1993).

The test system of assay [1] is ileum shrinkage induced by histamine. In words: inhibitory effect of the test compounds on the ileum shrinkage induced by histamine. Format: cell-based, guinea pigs. Conditions: Cavia porcellus; test compound 10^-7 M; histamine 10^-5 M; isolated ileum, Magnus tank, Tyrode solution; read-out: Inhibition ratio against shrinkage by histamine. As for the experimental part: (§1) Ileum samples removed from guinea pigs were suspended isotonically in a Magnus tank containing a 95% O2 and 5% CO2 saturated Tyrode solution to determine inhibitory effect of the test compounds (10^-7 M) on the ileum shrinkage induced by histamine (10^-5 M) or leukotoriene (10^-8 M). The inhibitory ratio (%) was determined by the following formula. [formula]

The subject of assay [2] is ileum shrinkage induced by leukotoriene. In words: inhibitory effect of the test compounds on the ileum shrinkage induced by leukotriene. Format: cell-based, guinea pigs. Conditions: Cavia porcellus; test compound 10^-7 M; leukotoriene 10^-8 M; isolated ileum, Magnus tank, Tyrode solution; read-out: Inhibition ratio against shrinkage by leukotriene. As to the method: as §1

Where a name gives a salt, the structure may show the parent alone.

Take `COc1cc(C(C)=O)ccc1OCCCN1CCC(OC(c2ccccc2)c2ccccc2)CC1` [Example 2]: the inhibition at 0.1 µM in assay [1] worked out at 96%; in assay [2] it was 30%.
As to `C=CCc1c(OCCCN2CCC(OC(c3ccccc3)c3ccccc3)CC2)ccc2c(C)cc(=O)oc12` [Example 7], the inhibition at 0.1 µM in assay [1] stood at 67%; in assay [2] it was 51%.
Taken in the same sequence, the figures for `COC(=O)c1ccc(OCCCN2CCC(OC(c3ccccc3)c3ccccc3)CC2)cc1` [Example 14] were 69% and 39%.
The matching figures for `C=CCc1c(OCCCN2CCC(OC(c3ccc(Cl)cc3)c3ccccn3)CC2)ccc(C(C)=O)c1O` (stereo not drawn) [Example 38]: 32% and 33%.
Turning to `C=CCc1c(OCCCN2CCC(OC(c3ccccc3)c3ccccc3)CC2)ccc2c(=O)cc(C(=O)OCCCC)oc12` [Example 41], the inhibition at 0.1 µM in assay [1] and in assay [2] was 31% in each case.
With `CCCc1c(OCC(O)CN2CCC(OC(c3ccc(F)cc3)c3ccc(F)cc3)CC2)ccc(C(C)=O)c1O` (stereo not drawn) [Example 44, 1-{(3-(4-acetyl-3-hydroxy-2-n-propylphenoxy)-2-hydroxy]propyl}-4-[bis(4-fluorophenyl)methoxy]piperidine fumarate], the values for the inhibition at 0.1 µM in assay [1] and in assay [2] were 43% and 35%, respectively.
`CCCc1c(OCC(O)CN2CCC(OC(c3ccc(Cl)cc3)c3ccccn3)CC2)ccc(C(C)=O)c1O` (stereo not drawn) [Example 45]: the results for the inhibition at 0.1 µM in assay [1] and in assay [2] were 40% and 30%, respectively.
Turning to `C=CCc1c(OCC(O)CN2CCC(OC(c3ccc(Cl)cc3)c3ccccn3)CC2)ccc(C(C)=O)c1O` (stereo not drawn) [Example 47], the inhibition at 0.1 µM in assay [1] was 38%; in assay [2], 36%.
On to `COC(=O)c1cc(=O)c2cc(C(C)C)cc(NC(=O)CCCN3CCC(OC(c4ccc(F)cc4)c4ccc(F)cc4)CC3)c2o1` [Example 60], for which the inhibition at 0.1 µM turned out to be 58% in assay [1] and 37% in assay [2].
